In patent US11376306B2, “Peptides and uses therefor as antiviral agents” (priority 2017, dated 2022) one finds EC50, IC50 and CC50 data, which are given here for five compounds.

Positions of bridges follow the written chain, without caps; N, C: chain ends. Non-standard residues stand in square brackets, D forms with d. Residues, ends and D or L forms follow the SMILES beside them.

The test system of one data set is RSV A2. Description: Cytopathic effect (CPE) assay, RSV A2 on Hep-2 cells. The format is cell-based, Respiratory syncytial virus. To be noted: CPE assay on Hep-2 cells, MOI 0.02, 5 days. How it is done: FIG. 1: Effect of H-RRKKcwwftfiac-OH (PSP VI A1) against RSV A2 in vitro. The ability of the peptide to inhibit the replication of RSV A2 was determined by CPE assay on Hep-2 cells. Experiments were done in triplicates and carried out in the presence of DMSO or increasing concentration of test compound.
(§1) Cytopathic effect (CPE) assay for HSV, RSV and CMV: Appropriate cells were seeded into 96 well plates and incubated overnight until they reached ˜70% confluency. Viruses were treated with various concentrations of peptide or vehicle for 90 minutes at 4° C. and added on to the confluent monolayer of cells for the rest of the assay. At the end of the incubation period, the viability of the cells was determined by adding MTT reagent and incubating the plates at 37° C. for 2-4 hours at 5% CO2. After the incubation, 100% isopropanol was added to solubilise the formazan crystals and the absorbance was recorded at 540 nm subtracting the background at 620 nm.
(§2) Pauwels formula (shown below) was used to calculate the percent cell protection achieved by the positive control or test compounds.
(§3) Percent cell protection=([ODt]virus−[ODc]virus/[ODc]mock−[ODc]virus)×100
(§4) These percentages were used to determine the ECso which were calculated by non-linear regression analysis with IDBS XLFit Excel Add-in Version 5.4.0.8
In general terms: Protection from cytopathic effect is a common read-out in antiviral testing.

Another data set has as its system HSV-2. Description: Cytopathic effect (CPE) assay, HSV-2 on Vero cells. In kind it is cell-based, Herpes Simplex Virus. To be noted: MOI 0.02, 4 days. The procedure: FIG. 3: Effect of PSP VI A1 against HSV-2 in vitro. The ability of the peptide to inhibit the replication of HSV was determined by CPE assay on Vero cells. Experiments were done in triplicates and carried out in the presence of DMSO or increasing concentration of test compound.
as §1, §2, §3, §4

The next data set deals with CMV AD169. The data set is described as follows: Cytopathic effect (CPE) assay, CMV AD169 on HFFF-2 cells. As to conditions: CPE assay on HFFF-2 cells, MOI 0.006, 14 days. The format is cell-based, Cytomegalovirus. How it is done:
FIG. 5: Effect of PSP VI A1 against CMV in vitro. The ability of the peptide to inhibit the replication of CMV was determined by CPE assay on HFFF-2 cells. Experiments were done in triplicates and carried out in the presence of DMSO or increasing concentration of test compound.
as §1, §2, §3, §4

In a further data set the test system is HIV-1 92UG029. The format is cell-based, Human Immunodeficiency Virus. How it is done:
FIG. 7: Effect of PSP VI A1 against HIV-1 92UG029 in vitro. The ability of the peptide to inhibit the replication of HIV was determined by reverse transcriptase assay on PBMCs. Experiments were carried out in the presence of DMSO or increasing concentration of peptide. Results are presented as mean value of triplicate measurements.
Anti-HIV Efficacy Evaluation in Fresh Human PBMCs: PBMCs were infected with various concentrations of peptide treated viruses and incubated at 37° C., 5% CO2 for seven days. After this incubation, the cells were centrifuged down and the supernatants were collected for reverse transcriptase activity (RT) assay. The cytotoxic effects of the compounds were studied with the addition of MTS to the cells following the removal of the supernatant. Data analysis for IC50 and TC50 was done by the CRO with their in house computer program.
Reverse transcriptase activity assay: Reverse transcriptase (RT) assay was carried out in a microtiter plate. Briefly Tritiated thymidine triphosphate (3H-TTP, 80 Ci/mmol, NEN;(GE Healthcare) was prepared as a stock solution by combining 150 μL poly rA (20 mg/mL) with 0.5 mL oligo dT (20 units/mL) and 5.35 mL sterile dH2O. Fresh RT reaction buffer was prepared with 125 μL 1.0 M EGTA, 125 μL dH2O, 125 μL 20% Triton X100, 50 μL 1.0 M Tris (pH 7.4), 50 μL 1.0 M DTT, and 40 μL 1.0 M MgCl2. The final reaction mixture was obtained by mixing 1 part of 3H-TTP, 4 parts dH2O, 2.5 parts poly rA:oligo dT stock and 2.5 parts reaction buffer. Ten microliters of this reaction mixture was added to the microtiter plate and 15 μL of virus containing supernatant is added and mixed. Then the plate was incubated at 37° C. for 60 minutes. After the incubation, the reaction volume was spotted onto DE81 filter-mats (Wallac), washed extensively with 5% sodium phosphate buffer or 2× SSC (Life Technologies), then in distilled water which was followed by 70% ethanol wash and air drying. Standard liquid scintillation techniques were used to quantify the incorporated radioactivity (counts per minute, CPM).

Data set [1] is described as follows: Cytotoxicity Assay 2 (CellTiter 96 AQueous One) on MDCK cells. In kind it is cell-based. As to conditions: dog, 0.1-100 μM, no significant toxicity, read-out: CE50 (Cytotoxic Effect 50). The procedure: (§5) Cytotoxicity Assay 2: MDCK cells or A549 cells (˜5000 cells/well) are grown overnight on 96 well plates. The media is replaced by serially diluted peptides and incubated again for 24/48 h. The culture medium is removed and 20 μl of CellTiter 96® AQueous One Solution […] (Promega, Wis., USA) is added and incubated at 37° C. for 2 h. The optical density is measured at 490 nm in an microplate reader (iMARK, BioRad, USA).
(§6) Cytotoxic effects of anti-viral peptides on MDCK cells or A549 cells: The cytotoxic effects of anti-viral peptides are shown in FIG. 12 and FIG. 13 which are assessed as explained in Example 1. Briefly, the MDCK cells/A549 cells are treated with either 0 μM peptide (Mock) or increasing concentrations (i.e., 0.1 μM, 0.3 μM, 1 μM, 3 μM, 10 μM, 30 μM and 100 μM) of PSP V A19 and PSP VI A1 and the cell death is determined by 48 hours post infection by a cytotoxicity assay with CellTiter 96® AQueous One Solution cell proliferation assay kit (Promega, USA) as explained by manufacturer. The results are normalized to the mock treated cells.

The nature of data set [2]: Cytotoxicity Assay 2 (CellTiter 96 AQueous One) on A549 cells. In kind it is cell-based. As to conditions: human, 0.1-100 μM, no significant toxicity, read-out: CE50 (Cytotoxic Effect 50). How it is done: as §5, §6

A word on the EC50: it is the concentration at which the effect is half-maximal. Read a low EC50 as an effect from little substance. `CC[C@@H](C)[C@H]1NC(=O)[C@@H](Cc2ccccc2)NC(=O)[C@@H]([C@H](C)O)NC(=O)[C@@H](Cc2ccccc2)NC(=O)[C@@H](Cc2c[nH]c3ccccc23)NC(=O)[C@@H]([C@H](C)O)NC(=O)[C@H](NC(=O)[C@H](CCCCN)NC(=O)[C@H](CCCCN)NC(=O)[C@H](CCCNC(=N)N)NC(=O)[C@@H](N)CCCNC(=N)N)CSSC[C@H](C(=O)O)NC(=O)[C@@H](CC(N)=O)NC1=O` [PSP IV A17, H-RRKKctwftfinc-OH] (H-RRKK[dC][dT][dW][dF][dT][dF][dI][dN][dC]-OH; disulfide 5-13): the concentration for a half-maximal effect (EC50) with RSV A2 is 12.6 µM; in the data set on HSV-2, around 30 µM; in the data set with CMV AD169, 18.9 µM.
The IC50 is the concentration at which inhibition is half-maximal. A low value points to greater potency in that assay. In the case of `CC[C@@H](C)[C@@H](NC(=O)[C@@H](Cc1ccccc1)NC(=O)[C@H](NC(=O)[C@@H](Cc1ccccc1)NC(=O)[C@@H](Cc1c[nH]c2ccccc12)NC(=O)[C@H](NC(=O)[C@H](CCCCN)NC(=O)[C@H](CCCCN)NC(=O)[C@H](CCCNC(=N)N)NC(=O)[C@@H](N)CCCNC(=N)N)[C@H](C)O)[C@H](C)O)C(=O)N[C@H](CC(N)=O)C(=O)O` [PSP IV A17-LS, H-RRKKtwftfin-OH] (H-RRKK[dT][dW][dF][dT][dF][dI][dN]-OH), inhibition with HIV-1 92UG029 was half-maximal at 79.1 µM (IC50).
Regarding `CC[C@@H](C)[C@H]1NC(=O)[C@@H](Cc2ccccc2)NC(=O)[C@@H]([C@H](C)O)NC(=O)[C@@H](Cc2ccccc2)NC(=O)[C@@H](Cc2c[nH]c3ccccc23)NC(=O)[C@@H](Cc2c[nH]c3ccccc23)NC(=O)[C@H](NC(=O)[C@H](CCCCN)NC(=O)[C@H](CCCCN)NC(=O)[C@H](CCCNC(=N)N)NC(=O)[C@@H](N)CCCNC(=N)N)CSSC[C@H](C(=O)O)NC(=O)[C@@H](CC(N)=O)NC1=O` [PSP V A19, H-RRKKcwwftfinc-OH] (H-RRKK[dC][dW][dW][dF][dT][dF][dI][dN][dC]-OH; disulfide 5-13), the CC50 at 48 h in data set [1] and in data set [2] was above 30 µM throughout.
Compound `CC[C@@H](C)[C@H]1NC(=O)[C@@H](Cc2ccccc2)NC(=O)[C@@H]([C@H](C)O)NC(=O)[C@@H](Cc2ccccc2)NC(=O)[C@@H](Cc2c[nH]c3ccccc23)NC(=O)[C@@H](Cc2c[nH]c3ccccc23)NC(=O)[C@H](N)CSSC[C@H](C(=O)O)NC(=O)[C@@H](CC(N)=O)NC1=O` [PSP V A19-C, H-cwwftfinc-OH] (H-[dC][dW][dW][dF][dT][dF][dI][dN][dC]-OH; disulfide 1-9) returned an IC50 in the data set with HIV-1 92UG029 of 66.5 µM.
With `CC[C@@H](C)[C@H]1NC(=O)[C@@H](Cc2ccccc2)NC(=O)[C@@H]([C@H](C)O)NC(=O)[C@@H](Cc2ccccc2)NC(=O)[C@@H](Cc2c[nH]c3ccccc23)NC(=O)[C@@H](Cc2c[nH]c3ccccc23)NC(=O)[C@H](NC(=O)[C@H](CCCCN)NC(=O)[C@H](CCCCN)NC(=O)[C@H](CCCNC(=N)N)NC(=O)[C@@H](N)CCCNC(=N)N)CSSC[C@H](C(=O)O)NC(=O)[C@@H](C)NC1=O` [PSP VI A1, H-RRKKcwwftfiac-OH] (H-RRKK[dC][dW][dW][dF][dT][dF][dI][dA][dC]-OH; disulfide 5-13), the half-maximal effective concentration (EC50) is 17.8 µM in the data set on RSV A2, around 30 µM with HSV-2 and 13.8 µM with CMV AD169. Besides, the half-inhibitory concentration (IC50) with HIV-1 92UG029 came out at 60.8 µM. The CC50 at 48 h in data set [1] and in data set [2] was above 30 µM in each case.
